In one test the target is T1, rat TRPA1 (Rattus norvegicus, UniProt Q6RI86).
T1 construct: expressed in transfected cells; host or cells: CHO cells (Zeocin selection)
Briefly: 45Calcium uptake assay: inhibition of AITC induced cellular uptake of radioactive calcium, rat TRPA1 expressing CHO cells. Format: cell-based. Conditions: AITC 10 μM; for inhibition at 10 µM: 10.0 μM compound, read-out: rat TRPA1 Percentage inhibition at 10.0 μM; for inhibition at 1 µM: read-out: rat TRPA1 Percentage inhibition; for IC50: class symbols. A digest of the protocol:
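CHO cells expressing rat or human TRPA1 were pre-treated with compound for 10 min, then given AITC (30 μM human, 10 μM rat) plus 5 μCi/ml 45Ca2+ for 3 min; final DMSO 0.5%. Lysate radioactivity was counted by scintillation. IC50 came from nonlinear regression of concentration-response curves as % of maximal response.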

In another test the target is T2, human TRPA1 (Homo sapiens, UniProt O75762).
T2 construct: expressed in transfected cells; host or cells: CHO cells (G-418 selection)
T2 sequence (O75762 whole entry): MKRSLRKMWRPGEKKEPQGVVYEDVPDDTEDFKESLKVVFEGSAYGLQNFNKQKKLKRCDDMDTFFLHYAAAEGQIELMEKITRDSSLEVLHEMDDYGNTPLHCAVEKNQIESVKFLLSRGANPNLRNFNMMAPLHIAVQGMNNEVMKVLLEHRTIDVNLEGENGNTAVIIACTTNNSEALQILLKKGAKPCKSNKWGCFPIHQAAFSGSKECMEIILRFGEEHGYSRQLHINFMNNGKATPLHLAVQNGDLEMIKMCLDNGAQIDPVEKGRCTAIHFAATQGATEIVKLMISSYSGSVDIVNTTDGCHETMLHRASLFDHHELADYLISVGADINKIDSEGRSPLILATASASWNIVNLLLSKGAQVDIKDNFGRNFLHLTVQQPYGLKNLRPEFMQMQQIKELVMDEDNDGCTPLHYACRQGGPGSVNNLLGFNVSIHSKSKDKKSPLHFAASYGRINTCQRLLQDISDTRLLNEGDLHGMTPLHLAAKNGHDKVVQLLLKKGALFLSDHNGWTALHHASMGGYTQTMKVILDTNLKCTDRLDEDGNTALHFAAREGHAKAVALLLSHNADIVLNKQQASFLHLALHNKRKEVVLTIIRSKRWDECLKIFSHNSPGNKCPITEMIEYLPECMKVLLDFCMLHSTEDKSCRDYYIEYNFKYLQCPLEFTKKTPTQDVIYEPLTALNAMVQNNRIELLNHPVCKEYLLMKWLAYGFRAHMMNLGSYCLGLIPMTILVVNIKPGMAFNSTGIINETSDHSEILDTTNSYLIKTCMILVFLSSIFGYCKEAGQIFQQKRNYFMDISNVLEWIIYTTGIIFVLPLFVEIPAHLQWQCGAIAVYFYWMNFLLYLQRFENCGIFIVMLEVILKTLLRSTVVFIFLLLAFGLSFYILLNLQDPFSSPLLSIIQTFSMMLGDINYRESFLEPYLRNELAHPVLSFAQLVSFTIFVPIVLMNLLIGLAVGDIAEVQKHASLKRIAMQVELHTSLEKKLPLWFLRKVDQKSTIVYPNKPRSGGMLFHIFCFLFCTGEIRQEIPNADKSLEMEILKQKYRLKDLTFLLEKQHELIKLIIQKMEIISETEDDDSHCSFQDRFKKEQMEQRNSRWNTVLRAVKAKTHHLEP
As to the kind of experiment: 45Calcium uptake assay: inhibition of AITC induced cellular uptake of radioactive calcium, human TRPA1 expressing CHO cells. The note with it: numeric values, AITC 30 μM. Format: cell-based. In a few lines:
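CHO cells expressing TRPA1 were preincubated 10 min with compound (0.5% DMSO final), then given AITC (30 μM human, 10 μM rat) plus 5 μCi/ml 45Ca2+ for 3 min. Lysate radioactivity measured by scintillation; IC50 obtained by nonlinear regression of % maximal response without antagonist.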

T1 sequence (Q6RI86 whole entry): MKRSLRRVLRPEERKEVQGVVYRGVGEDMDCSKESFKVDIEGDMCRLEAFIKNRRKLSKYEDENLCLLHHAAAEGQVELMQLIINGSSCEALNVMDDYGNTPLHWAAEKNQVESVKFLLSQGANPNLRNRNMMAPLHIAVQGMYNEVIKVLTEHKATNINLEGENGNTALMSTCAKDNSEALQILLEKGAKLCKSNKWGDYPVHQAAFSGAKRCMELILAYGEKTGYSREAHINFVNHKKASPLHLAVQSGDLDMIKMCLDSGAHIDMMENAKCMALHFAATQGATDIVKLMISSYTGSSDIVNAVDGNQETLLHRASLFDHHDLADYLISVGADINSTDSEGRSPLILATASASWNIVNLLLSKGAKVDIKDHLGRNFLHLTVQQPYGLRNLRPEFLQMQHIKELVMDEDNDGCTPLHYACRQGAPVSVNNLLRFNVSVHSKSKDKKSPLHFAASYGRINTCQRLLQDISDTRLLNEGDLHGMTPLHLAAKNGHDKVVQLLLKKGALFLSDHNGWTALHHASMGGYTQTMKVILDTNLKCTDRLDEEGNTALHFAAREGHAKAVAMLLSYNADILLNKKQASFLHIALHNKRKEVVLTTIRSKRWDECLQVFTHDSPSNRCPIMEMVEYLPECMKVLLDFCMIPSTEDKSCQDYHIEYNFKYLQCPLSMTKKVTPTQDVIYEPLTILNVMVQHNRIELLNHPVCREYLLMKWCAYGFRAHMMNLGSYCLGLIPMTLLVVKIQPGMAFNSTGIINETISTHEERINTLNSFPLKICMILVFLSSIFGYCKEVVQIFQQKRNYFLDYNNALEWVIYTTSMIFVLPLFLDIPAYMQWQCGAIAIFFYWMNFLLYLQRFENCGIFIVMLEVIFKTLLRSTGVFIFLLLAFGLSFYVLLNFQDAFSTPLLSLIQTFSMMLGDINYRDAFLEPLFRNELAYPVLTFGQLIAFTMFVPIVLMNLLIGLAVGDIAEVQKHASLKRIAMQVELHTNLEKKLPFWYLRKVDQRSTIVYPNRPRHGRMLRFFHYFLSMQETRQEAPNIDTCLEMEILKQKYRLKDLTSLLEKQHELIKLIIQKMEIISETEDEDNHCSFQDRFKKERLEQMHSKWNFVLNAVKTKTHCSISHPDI

Regarding `Cc1oc2c(c1CC(=O)Nc1nc(-c3cc(F)c(OC(F)F)c(F)c3)cs1)c(=O)n(C)c(=O)n2C` [Example 85, N1-{4-[3,5-Difluoro-4-(difluoromethoxy)phenyl]-1,3-thiazol-2-yl}-2-(1,3,6-trimethyl-2,4-dioxo-1,2,3,4-tetrahydrofuro[2,3-d]pyrimidin-5-yl)acetamide], at rat TRPA1, the inhibition (commonly how much of the control response was suppressed) at 10 µM worked out at 100% and the inhibition at 1 µM came to 100%. For the same compound, the IC50 – broadly, the concentration at which inhibition is half-maximal – at human TRPA1 was 6.57 nM.
Turning to `Cc1oc2c(c1CC(=O)Nc1nc(-c3cc(Cl)c(OC(F)F)c(Cl)c3)cs1)c(=O)n(C)c(=O)n2C` [Example 86, N1-{4-[3,5-Dichloro-4-(difluoromethoxy)phenyl]-1,3-thiazol-2-yl}-2-(1,3,6-trimethyl-2,4-dioxo-1,2,3,4-tetrahydrofuro[2,3-d]pyrimidin-5-yl)acetamide], at rat TRPA1, the inhibition at 10 µM is 95.4%, the inhibition at 1 µM stood at 99.1% and the half-maximal inhibitory concentration (IC50) is less than 50 nM. Moreover, on human TRPA1, the IC50 is 4.11 nM.
With `Cc1oc2c(c1CC(=O)Nc1nc(-c3cc(F)c(OCC(F)(F)F)c(F)c3)cs1)c(=O)n(C)c(=O)n2C` [Example 87, N1-{4-[3,5-Difluoro-4-(2,2,2-trifluoroethoxy)phenyl]-1,3-thiazol-2-yl}-2-(1,3,6-trimethyl-2,4-dioxo-1,2,3,4-tetrahydrofuro[2,3-d]pyrimidin-5-yl)acetamide], the IC50 is less than 50 nM on rat TRPA1 and 1.68 nM on human TRPA1.
Regarding `Cc1oc2c(c1CC(=O)Nc1nc(-c3cc(Cl)c(OCC(F)(F)F)c(Cl)c3)cs1)c(=O)n(C)c(=O)n2C` [Example 88, N1-{4-[3,5-Dichloro-4-(2,2,2-trifluoroethoxy)phenyl]-1,3-thiazol-2-yl}-2-(1,3,6-trimethyl-2,4-dioxo-1,2,3,4-tetrahydrofuro[2,3-d]pyrimidin-5-yl)acetamide], at rat TRPA1, the inhibition at 10 µM was found to be 100% and the inhibition at 1 µM amounted to 98.3%. In addition, the IC50 at human TRPA1 was determined as 1.77 nM.
Regarding `Cc1oc2c(c1CC(=O)Nc1nc(-c3cc(F)c(OCC4CC4)c(F)c3)cs1)c(=O)n(C)c(=O)n2C` [Example 89, N1-{4-[4-(Cyclopropylmethoxy)-3,5-difluorophenyl]-1,3-thiazol-2-yl]-2-(1,3,6-trimethyl-2,4-dioxo-1,2,3,4-tetrahydrofuro[2,3-d]pyrimidin-5-yl)acetamide], the inhibition at 10 µM at rat TRPA1 was 98.8%. Moreover, the figures for the half-maximal inhibitory concentration (IC50) at rat TRPA1 and on human TRPA1 were 50 to 100 nM and 9.72 nM, respectively.
Take `Cc1oc2c(c1CC(=O)Nc1nc(-c3ccc(F)c(C(F)(F)F)c3)c(C)s1)c(=O)n(C)c(=O)n2C` [Example 90, N1-{4-[4-Fluoro-3-(trifluoromethyl)phenyl]-5-methyl-1,3-thiazol-2-yl}-2-(1,3,6-trimethyl-2,4-dioxo-1,2,3,4-tetrahydrofuro[2,3-d]pyrimidin-5-yl)acetamide]: on rat TRPA1, the inhibition at 10 µM was 99.5% and the inhibition at 1 µM turned out to be 98%. Besides, the IC50 at human TRPA1 came to 14.2 nM.

The record behind these values is patent publication US20120178766A1, “FUROPYRIMIDINEDIONE DERIVATIVES AS TRPAI MODULATORS” (priority 2009, published 2012).
